Experimental data from article PMC7178511, “Antimicrobial Activity and DNA/BSA Binding Affinity of Polynuclear Silver(I) Complexes with 1,2-Bis(4-pyridyl)ethane/ethene as Bridging Ligands” (Bioinorganic Chemistry and Applications, 2020).
≈ marks a conversion by molar mass, not a printed value. Marks after values point to notes of the source that are not given here.

Columns and labels:
[1] = system: Enterococcus faecalis ATCC 29212; assay: Broth microdilution MIC, E. faecalis; type: cell-based
Method: (§1) Minimal inhibitory concentration (MIC) values against Pseudomonas aeruginosa PA01, Staphylococcus aureus ATCC 43300, Salmonella enteritidis ATCC 13075, Salmonella pullorum ATCC 13036, Escherichia coli NCTC 9001, Listeria monocytogenes NCTC 11994, and Enterococcus faecalis ATCC 29212 were determined in Luria-Bertani broth (10.0 g/L tryptone, 10.0 g/L NaCl, 5.0 g/L yeast extract, pH 7.2) in accordance with the standard broth microdilution assay for bacteria that grow aerobically, as recommended by the CLSI (Clinical and Laboratory Standards Institute, Methods for Dilution Antimicrobial Susceptibility Tests for Bacteria That Grow Aerobically; Approved Standard—Tenth Edition M07-A10. CLSI). The highest tested concentration was 500 μg/mL, and the inocula were 1^·10^6 cfu/mL.

[2] = system: Pseudomonas aeruginosa PAO1; assay: Broth microdilution MIC, P. aeruginosa; type: cell-based
Method: as §1

C. krusei ATCC 6258 = assay: Broth microdilution MIC, C. krusei; type: cell-based, Candida krusei
Method: (§2) Stock solutions of bpa, bpe, and silver(I) complexes 1–3 were prepared fresh in DMSO (50 mg/mL) and kept at 4°C prior to use. Susceptibility testing of Candida spp. (C. albicans ATCC 10231, C. krusei ATCC 6258, C. parapsilosis ATCC 22019, and C. glabrata ATCC 2001) was performed according to CLSI broth microdilution guidelines (Clinical and Laboratory Standards Institute, Reference Method for Broth Dilution Antifungal Susceptibility Testing of Yeasts—Third Edition: Approved Standard M27-A3; Clinical and Laboratory Standards Institute, Reference Method for Broth Dilution Antifungal Susceptibility Testing of Yeasts: Fourth Informational Supplement M27-S4), in RPMI 1640 medium (Roswell Park Memorial Institute medium) containing 2% glucose (w/v). The highest tested concentration was 500 μg/mL, and the inocula were 1^·\10^5 colony forming units (cfu)/mL.

[3] = system: human lung fibroblast cell line MRC-5; assay: MTT assay on a human fibroblast cell line; type: cell-based; details: MRC-5, MTT, 48 h
Method: (§3) Antiproliferative activity was tested by 3-(4,5-dimethylthiazol-2-yl)-2,5-diphenyltetrazolium bromide (MTT) assay on a human lung fibroblast cell line (MRC-5; ATCC collection). Pregrown (24 h) cell monolayers were incubated in the media containing the tested compounds at concentrations ranging from 5 to 500 μg/mL and the cell viability was measured after 48 h. RPMI 1640 medium supplemented with 100 μg/mL streptomycin, 100 U/mL penicillin, and 10% (v/v) FBS (all from Sigma, Munich, Germany) was used for the cultivation of MRC-5 cell line. Cells were maintained as a monolayer (1^·10^4 cells per well) in RPMI 1640 and grown in a humidified atmosphere of 95% air and 5% CO2 at 37°C. The extent of MTT reduction was measured spectrophotometrically at 540 nm using Tecan Infinite 200 Pro multiplate reader (Tecan Group Ltd, Männedorf, Switzerland), and the cell survival was expressed as a percentage of the control (untreated cells). Cytotoxicity was expressed as the concentration of the compound inhibiting cell growth by 50% (IC50).

[4] = system: Staphylococcus aureus ATCC 43300; assay: Broth microdilution MIC, S. aureus; type: cell-based
Method: as §1

C. glabrata ATCC 2001 = assay: Broth microdilution MIC, C. glabrata; type: cell-based, Candida glabrata
Method: as §2

[5] = molecular target: T1, bovine serum albumin (BSA) (Bos taurus, UniProt P02769); assay: BSA tryptophan fluorescence quenching; type: binding; details: BSA 13.1 μM, Tris buffer pH 7.4
T1 construct: purchased Sigma-Aldrich
T1 sequence (P02769 25-607): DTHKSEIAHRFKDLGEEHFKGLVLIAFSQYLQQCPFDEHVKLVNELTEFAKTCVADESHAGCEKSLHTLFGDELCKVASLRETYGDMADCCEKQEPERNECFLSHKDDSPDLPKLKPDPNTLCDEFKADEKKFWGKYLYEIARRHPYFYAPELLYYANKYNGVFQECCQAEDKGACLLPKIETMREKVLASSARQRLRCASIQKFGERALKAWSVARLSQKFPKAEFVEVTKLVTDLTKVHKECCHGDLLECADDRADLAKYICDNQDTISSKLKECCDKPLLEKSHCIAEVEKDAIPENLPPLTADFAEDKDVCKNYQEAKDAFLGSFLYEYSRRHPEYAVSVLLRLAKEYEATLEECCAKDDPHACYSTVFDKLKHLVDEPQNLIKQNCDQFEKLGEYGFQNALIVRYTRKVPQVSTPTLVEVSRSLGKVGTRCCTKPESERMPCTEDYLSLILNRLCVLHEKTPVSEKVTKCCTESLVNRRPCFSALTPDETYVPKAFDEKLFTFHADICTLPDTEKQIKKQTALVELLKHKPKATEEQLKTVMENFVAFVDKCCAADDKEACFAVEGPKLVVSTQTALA
Method: The protein binding study was performed by tryptophan fluorescence quenching experiments using BSA (13.1 μM) in Tris buffer solution (pH 7.4). The quenching of the emission intensity of tryptophan residues of BSA at 352 nm was monitored using the increasing concentration of the complexes 1–3 (up to 464.9 μM). Fluorescence spectra were recorded in the range 280–500 nm with an excitation wavelength of 275 nm. The corresponding binding constants of the complexes (KA) and apparent binding sites (n) were calculated as it was previously explained.

[6] = system: Salmonella enteritidis ATCC 13075; assay: Broth microdilution MIC, S. enteritidis; type: cell-based; details: 24 h
Method: as §1

[7] = system: Escherichia coli NCTC 9001; assay: Broth microdilution MIC, E. coli; type: cell-based
Method: as §1

[8] = system: C. albicans expressing red fluorescent protein; assay: C. albicans filamentation study; type: cell-based, Candida albicans; details: MIC80 of complex, 6 h, 37°C, RPMI 1640 with 10% FBS
Method: The suspension of C. albicans expressing red fluorescent protein was prepared in RPMI 1640 medium with 10% (v/v) fetal bovine serum (FBS) to induce hyphae formation. The suspension was then treated with MIC80 concentrations of 1–3 at 37°C shaking. Cells treated with DMSO served as the control. After 6 h of incubation, the results were observed by a fluorescence microscope (Olympus BX51, Applied Imaging Corp., San Jose, CA, United States) under 20× magnification.

[9] = system: Salmonella pullorum ATCC 13036; assay: Broth microdilution MIC, S. pullorum; type: cell-based; details: 24 h
Method: as §1

[10] = system: Listeria monocytogenes NCTC 11994; assay: Broth microdilution MIC, L. monocytogenes; type: cell-based
Method: as §1

[11] = system: C. parapsilosis ATCC 22019; assay: Broth microdilution MIC, C. parapsilosis; type: cell-based, Candida parapsilosis
Method: as §2

calf thymus DNA (ctDNA) = assay: Competitive EthBr-DNA fluorescence binding experiment; details: Fluorescent titration, pH 7.4
Method: The competitive DNA-silver(I) complex binding experiments were carried out in the buffer (pH 7.4) by maintaining [DNA]/[EthBr] = 5, while increasing the concentration of the complexes 1–3. Each sample solution was scanned in the wavelength range 525–800 nm with an excitation wavelength of 520 nm. The Stern-Volmer constants (Ksv), which represent a measure of the binding propensity of the complexes to DNA, were calculated using the following equation [29]:(2) F0/F=1+Kqτ0complex=1+Ksvcomplex, where F0 and F are the fluorescence intensities in the absence and presence of the complexes, respectively. Kq stands for bimolecular quenching constant and τ0 (10^−8 s) is the lifetime of the fluorophore in the absence of the quencher. The binding constants (KA) and apparent binding sites (n) can be calculated by using the following equation [28]:(3) logF0−F/F=log KA+n logcomplex, where KA stands for the binding constant of the silver(I) complex with ctDNA and n stands for the apparent number of binding sites.

C. albicans ATCC 10231 = assay: Broth microdilution MIC, C. albicans; type: cell-based, Candida albicans
Method: as §2

[12] = system: genomic DNA isolated from C. albicans ATCC 10231; assay: DNA interaction assay using gel electrophoresis; type: binding, Candida albicans; details: 40, 100 and 400 μM complex, 2 h, 30°C, Tris buffer pH 8.5
Method: DNA interaction assay using gel electrophoresis has also been conducted according to the previously published procedure using high molecular weight (HMW) genomic DNA isolated from C. albicans ATCC 10231. Briefly, DNA (50 ng/μL final concentration) was incubated with 40, 100, and 400 μM final concentration of silver(I) complexes 1–3 in Tris buffer, pH 8.5 in 50 μL reaction volume. After 2 h incubation at 30°C, 10 μL aliquots were taken, mixed with loading dye, and loaded on agarose gel. Control contained an appropriate volume of DMSO. DNA samples were run, 500 ng per lane, on 0.8% agarose gel with ethidium bromide (EthBr) against O'GeneRuler™ 1 kb Plus DNA Ladder (Thermo Scientific™) at 60 V for 1 h. Gels were visualized and analyzed using the Gel Doc EZ system (Bio-Rad, Life Sciences, Hercules, USA), equipped with the Image Lab™ Software.

C. albicans = system: C. albicans; parameters: method as in PMID 30952084; details: at MIC doses; cited from earlier work
[13] = system: C. albicans infected zebrafish; parameters: method as in PMID 30952084; details: at MIC doses; cited from earlier work
[14] = system: investigated bacterial strains; assay: Broth microdilution MIC, panel of bacterial strains; type: cell-based
Method: as §1

[15] = MTT assay on a human fibroblast cell line; type: cell-based; details: human, MRC-5, MTT, read-out: IC50 (cytotoxic effect on MRC-5 cells)
Method: as §3

[16] = E. faecalis ATCC 29212, Luria-Bertani broth, 24 h, 37°C
[17] = P. aeruginosa PAO1, Luria-Bertani broth, 24 h, 37°C
[18] = C. krusei ATCC 6258, RPMI 1640 with 2% glucose
[19] = S. aureus ATCC 43300, Luria-Bertani broth, 24 h, 37°C
[20] = C. glabrata ATCC 2001, RPMI 1640 with 2% glucose
[21] = S. enteritidis ATCC 13075, Luria-Bertani broth, 37°C
[22] = E. coli NCTC 9001, Luria-Bertani broth, 24 h, 37°C
[23] = S. pullorum ATCC 13036, Luria-Bertani broth, 37°C
[24] = L. monocytogenes NCTC 11994, Luria-Bertani broth, 24 h, 37°C
[25] = C. parapsilosis ATCC 22019, RPMI 1640 with 2% glucose
[26] = C. albicans ATCC 10231, RPMI 1640 with 2% glucose

| Structure (SMILES) | MIC [1, 16] | MIC [2, 17] | MIC (C. krusei ATCC 6258; [18]) | IC50 (cytotoxic effect on MRC-5 cells) [3] | MIC [4, 19] | MIC (C. glabrata ATCC 2001; [20]) | Tryptophan fluorescence quenching (emission decrease at 352 nm) [5] | n (number of binding sites per albumin) [5] | MIC [6, 21] | MIC [7, 22] | effect on C. albicans hyphae formation [8] | MIC [9, 23] | MIC [10, 24] | MIC [11, 25] | Hypochromism (calf thymus DNA (ctDNA)) | MIC (C. albicans ATCC 10231; [26]) | interaction with C. albicans genomic DNA (emission of EthBr-DNA system on gel) [12] | effect on C. albicans filamentation (C. albicans) | outcome of infected zebrafish [13] | also measured |
| --- | --- | --- | --- | --- | --- | --- | --- | --- | --- | --- | --- | --- | --- | --- | --- | --- | --- | --- | --- | --- |
| O=[N+]([O-])[O-].[Ag+].c1cc(CCc2ccncc2)ccn1 [Complex 1, {[Ag(bpa)]NO3}n] | 12.5 µg/mL | 50 µg/mL | 6.25 µg/mL | 40^b μg/mL | 50 µg/mL | 6.25 µg/mL | 65.65% | 1.14 | 50 µg/mL | 12.5^a μg/mL | did not significantly affect the hyphae formation | 25 µg/mL | 50 µg/mL | 3.1 µg/mL | 11.3% | 6.25 µg/mL | Slightly higher interaction | – | – | effect on C. albicans growth under filamentation conditions [8]: reduced the growth |
| O.O=S(=O)([O-])C(F)(F)F.[Ag+].c1cc(CCc2ccncc2)ccn1.c1cc(CCc2ccncc2)ccn1 [Complex 2, {[Ag(bpa)2]CF3SO3^.H2O}n] | 25 µg/mL | 200 µg/mL | 3.1 µg/mL | 30 µg/mL | 200 µg/mL | 12.5 µg/mL | 76.10% | 1.10 | 50 µg/mL | 12.5 µg/mL | decreased number and length of hyphae | 12.5 µg/mL | 50 µg/mL | 2.5 µg/mL | 12.0% | 6.25 µg/mL | Slightly higher interaction | – | – | – |
| C(=C\c1ccncc1)/c1ccncc1.O=S(=O)([O-])C(F)(F)F.[Ag+] [Complex 3, {[Ag(bpe)]CF3SO3}n] | 25 µg/mL | 25 µg/mL | 6.25 µg/mL | 40 µg/mL | 100 µg/mL | 25 µg/mL | 81.13% | 1.30 | 200 µg/mL | 12.5 µg/mL | did not significantly affect the hyphae formation | 250 µg/mL | 25 µg/mL | 3.1 µg/mL | 3.8% | 25 µg/mL | – | – | – | K A (calf thymus DNA (ctDNA)): 59.16 M⁻¹ |
| O=C([O-])C(F)(F)F.[Ag+].c1cnc2ccc3ncccc3c2c1 [[Ag(CF3COO)(4,7-phen)]n] | – | – | – | – | – | – | – | – | – | – | – | – | – | – | – | – | – | totally prevented C. albicans filamentation | rescued the infected zebrafish of the lethal infection outcome | – |
| O=[N+]([O-])[O-].[Ag+].c1cnc2ccc3ncccc3c2c1 [[Ag(NO3)(4,7-phen)]n] | – | – | – | – | – | – | – | – | – | – | – | – | – | – | – | – | – | totally prevented C. albicans filamentation | rescued the infected zebrafish of the lethal infection outcome | – |
| c1cc(CCc2ccncc2)ccn1 [bpa, 1,2-Bis(4-pyridyl)ethane] | – | – | – | – | – | – | – | – | – | – | – | – | – | – | – | – | – | – | – | MIC ([1]; Enterococcus faecalis, ATCC29212, 24 h): > 500 µg/mL; MIC ([2]; Pseudomonas aeruginosa, PAO1, 24 h): > 500 µg/mL; MIC / antibacterial activity [14]: not significant; MIC (C. krusei ATCC 6258; Pichia kudriavzevii, ATCC6258): 125 µg/mL (≈ 678 µM); IC50 at 48 h [15]: 300 µg/mL (≈ 1630 µM); MIC ([4]; Staphylococcus aureus, ATCC43300, 24 h): > 500 µg/mL; MIC (C. glabrata ATCC 2001; Nakaseomyces glabratus, ATCC2001): > 500 µg/mL; MIC ([6]; Salmonella enterica): > 500 µg/mL; MIC ([7]; Escherichia coli, NCTC9001, 24 h): > 500 µg/mL; MIC ([9]; Salmonella enterica): > 500 µg/mL; MIC ([10]; Listeria monocytogenes, NCTC11994, 24 h): > 500 µg/mL; MIC ([11]; Lodderomyces parapsilosis, ATCC22019): 250 µg/mL (≈ 1360 µM); MIC (C. albicans ATCC 10231; Candida albicans, ATCC10231): 125 µg/mL (≈ 678 µM) |
